Measurements reported in patent US20220118121A1, “PROSTATE SPECIFIC MEMBRANE ANTIGEN (PSMA) LIGANDS WITH IMPROVED TISSUE SPECIFICITY” (Ruprecht-Karls-Universität Heidelberg, priority 2019, published 2022).
Read-outs that look alike come from different tables or passages of the source. Where a SMILES comes first, the peptide text is derived from it. [ ]: non-standard residue; d: D form. The star is where a group is joined. DOTA = O=C(O)CN1CCN(CC(=O)O)CCN(CC(=O)*)CCN(CC(=O)O)CC1; EuK = O=C(O)CC[C@H](NC(=O)N[C@@H](CCCCN*)C(=O)O)C(=O)O; 2Nal = N[C@@H](Cc1ccc2ccccc2c1)C(=O)O; Trx = NC[C@H]1CC[C@H](C(=O)O)CC1

Assays:
[1] = test system: prostate cancer; conditions: cited from earlier work
[2] = test system: PSMA+ LNCaP cells; test: cell surface binding and internalization of radiolabeled compounds; assay type: cell-based; conditions: for Specific Cell Surface Binding / Specific Internalization / Cell Surface binding / Internalization: 68Ga-labeled
Procedure: (§1) PSMA^+ LNCaP cells (ATCC CRL-1740) were cultured in RPMI medium. Cells were grown at 37° C. in humidified air with 5% C02 and were harvested using trypsin-ethylenediaminetetraacetic acid.
(§2) The competitive cell binding assay and internalization experiments were performed according to Eder M et al. (2012), Bioconjug Chem 23(4):688.
For internalization experiments, 10^5 cells per well were seeded in poly-L-lysine coated 24-well cell culture plates 24 h before incubation. After washing, the cells were incubated with 30 nM of the ^68Ga- or ^177Lu-radiolabeled compound for 45 min at 37° C. and at 4° C., respectively. Cellular uptake was terminated by washing 3 times with 1 mL of ice-cold PBS. To remove surface-bound radioactivity, cells were incubated twice with 0.5 mL glycine-HCl in PBS (50 mM, pH=2.8) for 5 min. The cells were washed with 1 mL of ice-cold PBS and lysed using 0.3 N NaOH (0.5 mL). The surface-bound and the internalized fractions were measured in a gamma counter. The cell uptake was calculated as percent of the initially added radioactivity bound to 10^5 cells [% ID/10^5 cells].

[3] = biological target: T1, PSMA (Homo sapiens, UniProt Q04609); test: competitive cell binding assay vs 68Ga-labeled PSMA-10 on LNCaP cells
T1 construct: host or cells: LNCaP cells
T1 sequence (Q04609 whole entry): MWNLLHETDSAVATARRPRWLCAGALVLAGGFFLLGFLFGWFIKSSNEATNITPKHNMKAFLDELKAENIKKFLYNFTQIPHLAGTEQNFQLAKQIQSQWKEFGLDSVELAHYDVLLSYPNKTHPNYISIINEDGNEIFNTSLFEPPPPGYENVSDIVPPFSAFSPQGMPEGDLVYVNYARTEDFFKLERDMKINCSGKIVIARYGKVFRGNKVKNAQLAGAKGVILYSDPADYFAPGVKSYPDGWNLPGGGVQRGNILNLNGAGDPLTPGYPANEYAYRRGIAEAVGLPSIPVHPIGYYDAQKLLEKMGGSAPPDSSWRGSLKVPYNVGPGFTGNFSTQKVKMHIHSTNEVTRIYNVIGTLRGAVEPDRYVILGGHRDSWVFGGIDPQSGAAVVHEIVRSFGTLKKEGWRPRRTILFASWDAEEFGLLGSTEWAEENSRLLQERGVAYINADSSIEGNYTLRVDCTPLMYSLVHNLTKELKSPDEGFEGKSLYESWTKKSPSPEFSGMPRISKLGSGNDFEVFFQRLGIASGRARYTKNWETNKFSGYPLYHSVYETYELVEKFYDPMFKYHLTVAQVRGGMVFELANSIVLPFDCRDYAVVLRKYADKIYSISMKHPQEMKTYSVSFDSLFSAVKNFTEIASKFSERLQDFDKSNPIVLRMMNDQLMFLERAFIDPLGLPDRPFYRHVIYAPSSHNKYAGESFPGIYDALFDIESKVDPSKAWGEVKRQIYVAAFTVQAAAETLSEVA
Procedure: as §1, §2
Briefly, the cells (10^5 per well) were incubated with a 0.8 nM solution of ^68Ga-labeled radioligand [Glu-urea-Lys(Ahx)]2-HBED-CC (PSMA-10, precursor ordered from ABX, Radeberg, Germany) in the presence of 12 different concentrations of analyte (0-5000 nM, 100 μL/well). After incubation, the mixture was removed and the wells were washed 3 times with PBS using a multiscreen vacuum manifold (Millipore, Billerica, Mass.). Cell-bound radioactivity was measured using a gamma counter (Packard Cobra II, GMI, Minnesota, USA). The 50% inhibitory concentration (IC50) values were calculated by fitting the data using a nonlinear regression algorithm (GraphPad Software).

[4] = LNCaP cells, 0.8 nM 68Ga-PSMA-10 radioligand, read-out: Specific Binding Affinity IC50

Row | IC50 [3, 4] [nM] | Structure (SMILES) | PSA value ([1]; both patients) | response of patients ([1]; two patients with extremely advanced and end-stage disease) | Specific Cell Surface Binding [2] [% ID/10^5 cells] | Specific Internalization [2] [% ID/10^5 cells] | Cell Surface binding ([2]; blocked) [% ID/10^5 cells] | Internalization ([2]; blocked) [% ID/10^5 cells] | Cell Surface binding ([2]; not blocked) [% ID/10^5 cells] | Internalization ([2]; not blocked) [% ID/10^5 cells] | IC50 [3] [nM] | Specific cell surface bound ([2]; 177Lu-labeled, LNCaP cells) [% ID/10^5 cells] | Specific internalized ([2]; 177Lu-labeled, LNCaP cells) [% ID/10^5 cells]
1 | – | O=C([O-])CC[C@H](NC(=O)N[C@@H](CCCCNC(=O)[C@H](Cc1ccc2ccccc2c1)NC(=O)C1CCC(CNC(=O)CN2CCN(CC(=O)[O-])CCN(CC(=O)[O-])CCN(CC(=O)[O-])CC2)CC1)C(=O)[O-])C(=O)[O-].[225Ac].[H+].[H+].[H+] (stereo partly drawn) [225Ac-PSMA-617] | fell below the detectability limit | complete remission | – | – | – | – | – | – | – | – | –
2 | 46.7 ± 37.3 | O=C(O)CC[C@H](NC(=O)N[C@@H](CCCCNC(=O)[C@H](Cc1ccc2ccccc2c1)NC(=O)[C@H]1CC[C@H](CNC(=O)[C@H](Cc2c[nH]cn2)NC(=O)[C@H](CCC(=O)O)NC(=O)[C@H](Cc2c[nH]cn2)NC(=O)[C@H](CCC(=O)O)NC(=O)[C@H](Cc2c[nH]cn2)NC(=O)[C@H](CCC(=O)O)NC(=O)[C@H](Cc2c[nH]cn2)NC(=O)[C@H](CCC(=O)O)NC(=O)CN2CCN(CC(=O)O)CCN(CC(=O)O)CCN(CC(=O)O)CC2)CC1)C(=O)O)C(=O)O [PS-4, DOTA-(EH)4-CHx-2NaI-PSMA] ({DOTA}-EHEHEHEH[Trx][2Nal]-EuK) | – | – | 1.33 ± 0.09 | 0.52 ± 0.04 | 0.083 ± 0.029 | 0.151 ± 0.048 | 1.420 ± 0.113 | 0.676 ± 0.070 | – | – | –
3 | 27.9 ± 6.93 | O=C(O)CC[C@H](NC(=O)N[C@@H](CCCCNC(=O)[C@H](Cc1ccc2ccccc2c1)NC(=O)[C@H]1CC[C@H](CNC(=O)[C@H](CCC(=O)O)NC(=O)[C@H](Cc2c[nH]cn2)NC(=O)[C@H](CCC(=O)O)NC(=O)[C@H](Cc2c[nH]cn2)NC(=O)[C@H](CCC(=O)O)NC(=O)[C@H](Cc2c[nH]cn2)NC(=O)CN2CCN(CC(=O)O)CCN(CC(=O)O)CCN(CC(=O)O)CC2)CC1)C(=O)O)C(=O)O [PS-4.2, DOTA-(HE)3-CHx-2NaI-PSMA] ({DOTA}-HEHEHE[Trx][2Nal]-EuK) | – | – | 1.35 ± 0.28 | 0.71 ± 0.28 | 0.080 ± 0.010 | 0.113 ± 0.023 | 1.437 ± 0.138 | 0.676 ± 0.070 | – | – | –
4 | – | O=C(O)CC[C@H](NC(=O)N[C@@H](CCCCNC(=O)[C@H](Cc1ccc2ccccc2c1)NC(=O)[C@H]1CC[C@H](CNC(=O)[C@H](CCC(=O)O)NC(=O)[C@H](CCC(=O)O)NC(=O)[C@H](CCC(=O)O)NC(=O)CN2CCN(CC(=O)O)CCN(CC(=O)O)CCN(CC(=O)O)CC2)CC1)C(=O)O)C(=O)O [PS-5, DOTA-(E)3-CHx-2NaI-PSMA] ({DOTA}-EEE[Trx][2Nal]-EuK) | – | – | 0.94 ± 0.13 | 0.63 ± 0.28 | 0.055 ± 0.013 | 0.095 ± 0.026 | 1.003 ± 0.127 | 0.725 ± 0.269 | 10.4 ± 2.94 | – | –
5 | 28.6 ± 8.42 | O=C(O)CC[C@H](NC(=O)N[C@@H](CCCCNC(=O)[C@H](CCC(=O)O)NC(=O)[C@H](CCC(=O)O)NC(=O)[C@H](CCC(=O)O)NC(=O)[C@H](Cc1ccc2ccccc2c1)NC(=O)[C@H]1CC[C@H](CNC(=O)CN2CCN(CC(=O)O)CCN(CC(=O)O)CCN(CC(=O)O)CC2)CC1)C(=O)O)C(=O)O [PS-6, DOTA-CHx-2NaI-(E)3-PSMA] ({DOTA-Trx}-[2Nal]EEE-EuK) | – | – | 0.71 ± 0.12 | 0.45 ± 0.12 | 0.050 ± 0.020 | 0.156 ± 0.023 | 0.767 ± 0.156 | 0.607 ± 0.136 | – | – | –
6 | 78.6 ± 44.1 | O=C(O)CC[C@H](NC(=O)N[C@@H](CCCCNC(=O)[C@H](Cc1c[nH]cn1)NC(=O)[C@H](Cc1c[nH]cn1)NC(=O)[C@H](Cc1c[nH]cn1)NC(=O)[C@H](Cc1ccc2ccccc2c1)NC(=O)[C@H]1CC[C@H](CNC(=O)CN2CCN(CC(=O)O)CCN(CC(=O)O)CCN(CC(=O)O)CC2)CC1)C(=O)O)C(=O)O [PS-8, DOTA-CHx-2NaI-(H)3-PSMA] ({DOTA-Trx}-[2Nal]HHH-EuK) | – | – | 0.90 ± 0.03 | 0.51 ± 0.05 | 0.038 ± 0.010 | 0.093 ± 0.033 | 0.945 ± 0.030 | 0.600 ± 0.066 | – | – | –
7 | 23.4 ± 9.7 | O=C(O)CC[C@H](NC(=O)N[C@@H](CCCCNC(=O)[C@H](Cc1ccc2ccccc2c1)NC(=O)[C@H](CCC(=O)O)NC(=O)[C@H](CCC(=O)O)NC(=O)[C@H](CCC(=O)O)NC(=O)[C@H]1CC[C@H](CNC(=O)CN2CCN(CC(=O)O)CCN(CC(=O)O)CCN(CC(=O)O)CC2)CC1)C(=O)O)C(=O)O [PS-9, DOTA-CHx-(E)3-2NaI-PSMA] ({DOTA-Trx}-EEE[2Nal]-EuK) | – | – | 0.59 ± 0.09 | 0.27 ± 0.07 | 0.060 ± 0.021 | 0.138 ± 0.046 | 0.650 ± 0.083 | 0.410 ± 0.090 | – | – | –
8 | 21.8 ± 3.13 | O=C(O)CCC(NC(=O)NC(CCCCNC(=O)C(Cc1ccc2ccccc2c1)NC(=O)C1CCC(CNC(=O)CN2CCN(CC(=O)O)CCN(CC(=O)O)CCN(CC(=O)O)CC2)CC1)C(=O)O)C(=O)O (stereo not drawn) [PSMA-617, 2-[3-(1-Carboxy-5-{3-naphthalen-2-yl-2-[(4-{[2-(4,7,10-tris-carboxymethyl-1,4,7,10-tetraaza-cyclododec-1-yl)-acetylamino]-methyl}-cyclohexanecarbonyl)-amino]-propionylamino}-pentyl)-ureido]-pentanedioic acid, reference compound] | – | – | 0.72 ± 0.06 | 0.39 ± 0.06 | 0.063 ± 0.014 | 0.117 ± 0.032 | 0.792 ± 0.134 | 0.504 ± 0.051 | – | 4.36 ± 1.33 | 2.94 ± 0.35

Row | Structure (SMILES) | IC50 [3, 4] [nM] | PSA value ([1]; both patients) | response of patients ([1]; two patients with extremely advanced and end-stage disease) | Specific Cell Surface Binding [2] [% ID/10^5 cells] | Specific Internalization [2] [% ID/10^5 cells] | Cell Surface binding ([2]; blocked) [% ID/10^5 cells] | Internalization ([2]; blocked) [% ID/10^5 cells] | Cell Surface binding ([2]; not blocked) [% ID/10^5 cells] | Internalization ([2]; not blocked) [% ID/10^5 cells] | IC50 [3] [nM] | Specific cell surface bound ([2]; 177Lu-labeled, LNCaP cells) [% ID/10^5 cells] | Specific internalized ([2]; 177Lu-labeled, LNCaP cells) [% ID/10^5 cells]
9 | O=C(O)CC[C@H](NC(=O)N[C@@H](CCCCNC(=O)[C@H](Cc1ccc2ccccc2c1)NC(=O)[C@H]1CC[C@H](CNC(=O)[C@H](Cc2c[nH]cn2)NC(=O)[C@H](Cc2c[nH]cn2)NC(=O)[C@H](Cc2c[nH]cn2)NC(=O)CN2CCN(CC(=O)O)CCN(CC(=O)O)CCN(CC(=O)O)CC2)CC1)C(=O)O)C(=O)O [PS-7, DOTA-(H)3-CHx-2NaI-PSMA] ({DOTA}-HHH[Trx][2Nal]-EuK) | 22.7 ± 6.47 | – | – | 0.69 ± 0.11 | 0.47 ± 0.11 | 0.123 ± 0.015 | 0.207 ± 0.021 | 0.817 ± 0.047 | 0.673 ± 0.093 | – | – | –
